Assays:
Experiment in all cases: G-Flamp2 cAMP biosensor fluorescence in HeLa cells expressing the receptor
Format in all cases: cell-based
AmOctβ2 = biological target: T1, AmOctβ2 (Apis mellifera, UniProt A0A7M7GMY8)
T1 sequence (A0A7M7GMY8 1-438): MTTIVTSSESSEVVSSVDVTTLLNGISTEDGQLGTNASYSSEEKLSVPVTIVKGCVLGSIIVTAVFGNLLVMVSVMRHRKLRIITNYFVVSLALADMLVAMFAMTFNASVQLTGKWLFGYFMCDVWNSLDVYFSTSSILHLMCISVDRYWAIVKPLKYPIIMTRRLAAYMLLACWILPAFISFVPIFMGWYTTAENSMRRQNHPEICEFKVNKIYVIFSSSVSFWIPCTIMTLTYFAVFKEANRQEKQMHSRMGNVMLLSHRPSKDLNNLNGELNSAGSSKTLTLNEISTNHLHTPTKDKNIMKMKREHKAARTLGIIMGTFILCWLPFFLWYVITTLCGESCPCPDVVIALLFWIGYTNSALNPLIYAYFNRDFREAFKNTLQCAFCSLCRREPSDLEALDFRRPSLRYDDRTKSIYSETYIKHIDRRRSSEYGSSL

AgOctβ2R (AgOctβ2) [1] = biological target: T2, AgOctβ2R (AgOctβ2) (Anopheles gambiae, UniProt F5HKI1, N432C)
T2 sequence (F5HKI1 1-526 N432C): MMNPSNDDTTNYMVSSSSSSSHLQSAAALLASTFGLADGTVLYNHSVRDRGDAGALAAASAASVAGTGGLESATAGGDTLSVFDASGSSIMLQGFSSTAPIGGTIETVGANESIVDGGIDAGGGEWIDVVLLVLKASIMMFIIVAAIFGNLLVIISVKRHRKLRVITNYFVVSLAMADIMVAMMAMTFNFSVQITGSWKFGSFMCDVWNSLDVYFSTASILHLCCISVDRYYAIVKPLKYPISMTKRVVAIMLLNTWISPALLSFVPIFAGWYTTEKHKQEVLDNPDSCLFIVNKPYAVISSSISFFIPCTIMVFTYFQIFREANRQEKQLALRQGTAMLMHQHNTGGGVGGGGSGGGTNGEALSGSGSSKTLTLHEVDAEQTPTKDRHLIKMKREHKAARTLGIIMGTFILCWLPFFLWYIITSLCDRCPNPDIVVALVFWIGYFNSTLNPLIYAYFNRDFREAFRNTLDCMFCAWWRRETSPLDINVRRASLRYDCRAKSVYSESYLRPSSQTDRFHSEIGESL

AgOctβ2R (AgOctβ2) [2] = biological target: T3, AgOctβ2R (AgOctβ2) (Anopheles gambiae, UniProt F5HKI1)
T3 sequence (F5HKI1 1-526): T2 sequence (F5HKI1 1-526 N432C)

VdOctβ2 = biological target: T4, VdOctβ2 (Varroa destructor, UniProt A0A7M7KEY3)
T4 sequence (A0A7M7KEY3 1-439): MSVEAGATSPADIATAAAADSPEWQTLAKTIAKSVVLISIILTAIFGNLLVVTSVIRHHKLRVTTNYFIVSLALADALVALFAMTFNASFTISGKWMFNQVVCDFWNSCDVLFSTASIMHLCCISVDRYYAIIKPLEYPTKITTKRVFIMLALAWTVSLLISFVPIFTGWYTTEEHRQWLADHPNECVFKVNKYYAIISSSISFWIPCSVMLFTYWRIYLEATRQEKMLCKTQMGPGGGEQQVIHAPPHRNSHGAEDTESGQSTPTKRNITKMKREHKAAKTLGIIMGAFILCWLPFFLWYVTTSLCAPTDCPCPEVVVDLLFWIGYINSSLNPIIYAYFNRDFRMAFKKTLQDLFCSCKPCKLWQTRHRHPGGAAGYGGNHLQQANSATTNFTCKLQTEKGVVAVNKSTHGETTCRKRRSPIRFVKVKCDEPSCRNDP

AgOctβ2R (AgOctβ2) [3] = biological target: T5, AgOctβ2R (AgOctβ2) (Anopheles gambiae, UniProt F5HKI1, L290E)
T5 sequence (F5HKI1 1-526 L290E): T2 sequence (F5HKI1 1-526 N432C)

Row | SMILES | EC50 (AmOctβ2) | EC50 (AgOctβ2R (AgOctβ2) [1]) | EC50 (AgOctβ2R (AgOctβ2) [2]) | EC50 (VdOctβ2) | EC50 (AgOctβ2R (AgOctβ2) [3])
1 | NCC(O)c1ccc(O)cc1 (stereo not drawn) [octopamine] | 45.6 nM | 57.3 nM | 14.7 nM | 47.1 nM | 
2 | Cc1ccc(/N=C/N(C)/C=N/c2ccc(C)cc2C)c(C)c1 [amitraz] | 12.1 nM | 118 nM | 10.8 nM | 1.9 nM | 85.4 nM

From publication doi:10.1101/2025.08.20.670845v1 (biorxiv, 2025)
